{"source": "patent US8513251B2", "about": "“Pyridazinone compounds” (Takeda Pharmaceutical Company Limited, priority 2009, dated 2013)", "system": "Male ICR mice", "experiment": "Improvement of MK-801-induced prepulse inhibition (PPI) deficits", "assay_type": "in vivo", "details": "82 dB prepulse; i.p. 30 min before testing; MK-801 0.3 mg/kg s.c. (FIG. 3)", "from_the_text": "Male ICR mice were supplied by CLEA Japan, Inc (Japan). After arrival to the vivarium, animals were allowed a minimum of 1 week for acclimation. They were housed under a 12:12-h light/dark cycle in a temperature- and humidity-controlled laboratory and allowed food and water ad libitum. The care and use of the animals and the experimental protocols used in this research were approved by the Experimental Animal Care and Use Committee of Takeda Pharmaceutical Company, Ltd (Osaka, Japan).\nThe compounds were suspended in 0.5% methylcellulose in saline or distilled water, and administered by intraperitoneally (i.p.) or orally (p.o.), respectively. Methamphetamine (Dainippon Sumitomo Pharma Co., Ltd.) and MK-801 (Sigma-Aldrich, St Louis, Mo.) were dissolved in saline, and administered subcutaneously (s.c.). […]\nPPI is a measure of sensorimotor gating and is one of a few neuropsychological measures in which humans and rodents can be evaluated in a similar fashion (Psychopharmacology (Berl) 2001, vol. 156: 117-154). We evaluated whether compound could reverse PPI deficits induced by MK-801 using male ICR mice. […] Placement of mice inside the cylinders allowed the whole-body startle responses induced by the acoustic stimuli to be measured via the transduction of movement into analog signals by a piezoelectric unit attached to the platform. […]", "data": [{"compound": "Cc1nc2n(c(=O)c1CCN1CCC(c3noc4cc(F)ccc34)CC1)CCCC2", "note": "[Risperidone]", "values": [{"measurement": "MK-801-induced PPI deficits", "result": "significantly reversed"}]}]}
